Molecules are shown by their SMILES. Where two headings read alike, the source gives them in different places.

The conditions of data set [1]: cited from earlier work; for area under serum drug concentration AUC0-2h: 200 mg dose; for AUC0-2h: 600 mg dose.
A short description of data set [2]: Bioavailability of oral ibuprofen crushed tablets in control rats. Type of data set: in vivo, Sprague-Dawley rats. As to the method: (§1) The animal models are Adult male Sprague-Dawley rats with body weight of 250-300 g, and which were cared for in accordance with the principles and guidelines of the Canadian Council of Animal Care. All rats were catheterized in the right jugular vein for sample collection.
(§2) The tablets were crushed gently and small pieces were administered into the stomach via a plastic tube followed by 0.5 mL tap water. […] They had free access to water.

The conditions of data set [3]: cited from earlier work.
The nature of data set [4]: Bioavailability of oral ibuprofen formulations in vagal-suppressed (propantheline-treated, Pain Model) rats. Type of data set: in vivo. The following applies: male, Sprague-Dawley, rat, plasma, 20 mg/kg. On the procedure:
as §1
An animal model having suppressed vagal properties were produced by administering (intraperitoneal injection) to the rats two 20 mg/kg doses of propantheline (test, n=6), an anticholinergic agent with known vagal suppressive properties, the first dose at 2 hours prior to administration of an NSAID, and the second at 1 hour prior.
as §2

The mark [5] stands for this setting: male, Sprague-Dawley, rat, plasma, po, 20 mg/kg.

Regarding `CC(C)Cc1ccc(C(C)C(=O)O)cc1` (racemic) [ibuprofen, (±)-2-(4-Isobutylphenyl)propionic acid], the “delay in the mean time to peak concentration caused by surgery” value in data set [1] (200 mg and 600 mg doses, dental surgery) is given as “two”. Besides, in data set [2] (control rats, 20 mg/kg ibuprofen oral as crushed tablets), the “AUC (0-8)” value is listed as 139 μg/h/mL^−1. Also, the values for the Cmax in data set [2] (setting [5]) and in data set [4] were 40400 ng/mL and 13800 ng/mL, respectively. In addition, the Tmax in data set [2] (setting [5]) was 16.8 min; in data set [4] it was 45 min. In addition, the solubility in water entry in data set [3] is “less than 1 part of drug in 10,000 parts o”.
Regarding `CC(C)Cc1ccc([C@@H](C)C(=O)O)cc1` [R-ibuprofen, R(−)-2-(4-isobutylphenyl)propionic acid], in data set [1] (before dental extraction), the “area under serum drug concentration AUC0-2h” value is 5.5 mg/L^−1/h. Moreover, the AUC0-2h in data set [1] (after dental extraction) is 5800 ng·h/mL; in data set [1] (before dental extraction), 14400 ng·h/mL.
Turning to `CC(C)Cc1ccc([C@H](C)C(=O)O)cc1` [S-ibuprofen, S(+)-2-(4-isobutylphenyl)propionic acid], in data set [1] (before dental extraction), the “area under serum drug concentration AUC0-2h” value was 5.6 mg/L^−1/h and the AUC0-2h is 14200 ng·h/mL. Also, the AUC0-2h in data set [1] (after dental extraction) was 7200 ng·h/mL.

For orientation: Cmax means the peak of the concentration-time curve. Usually Tmax stands for the time at which the peak concentration occurs.

The values above are taken from patent US20020192161A1, “Animal model for evaluating analgesics” (priority 2001, published 2002).
